Assay results from the NIST ThermoML archive (doi:10.1016/j.jct.2005.10.004).
Values joined by “and” are separate entries in the source; they are usually repeats but may differ in a detail not shown here. Equal values may be shown once.

Assay: xn = mol fraction of the nth substance listed
Conditions: Gas, Buoyancy - hydrostatic balance with magnetic suspension - one sinker

N#N [nitrogen] + C
Conditions | mass density
299.91 K, 7416.3 kPa, x2 = 0.8 | 59.8697 kg/m3
299.91 K, 7417.6 kPa, x2 = 0.8 | 59.8813 kg/m3
299.91 K, 9999.1 kPa, x2 = 0.8 | 82.4744 kg/m3
299.91 K, 10000 kPa, x2 = 0.8 | 82.4859 kg/m3
299.91 K, 10001 kPa, x2 = 0.8 | 82.4925 kg/m3
299.91 K, 12313 kPa, x2 = 0.8 | 102.883 kg/m3
299.91 K, 12314 kPa, x2 = 0.8 | 102.89 kg/m3
299.91 K, 14412 kPa, x2 = 0.8 | 121.138 kg/m3 and 121.127 kg/m3
299.91 K, 16342 kPa, x2 = 0.8 | 137.386 kg/m3
299.91 K, 16343 kPa, x2 = 0.8 | 137.395 kg/m3
299.92 K, 2421.7 kPa, x2 = 0.8 | 18.4741 kg/m3
299.92 K, 4995 kPa, x2 = 0.8 | 39.3048 kg/m3
299.92 K, 9109.5 kPa, x2 = 0.8 | 74.6412 kg/m3
299.99 K, 13043 kPa, x2 = 0.8998 | 105.072 kg/m3
299.99 K, 15058 kPa, x2 = 0.8998 | 122.114 kg/m3 and 122.112 kg/m3
299.99 K, 17101 kPa, x2 = 0.8998 | 138.717 kg/m3 and 138.72 kg/m3
299.99 K, 19357 kPa, x2 = 0.8998 | 155.97 kg/m3
299.99 K, 19358 kPa, x2 = 0.8998 | 155.975 kg/m3
300 K, 899.61 kPa, x2 = 0.8998 | 6.30257 kg/m3
300 K, 2023 kPa, x2 = 0.8998 | 14.4126 kg/m3
300 K, 2023.1 kPa, x2 = 0.8998 | 14.4136 kg/m3
300 K, 2766.3 kPa, x2 = 0.8998 | 19.9248 kg/m3
300 K, 4003.3 kPa, x2 = 0.8998 | 29.3523 kg/m3
300 K, 4948.9 kPa, x2 = 0.8998 | 36.7656 kg/m3
300 K, 5998.7 kPa, x2 = 0.8998 | 45.1981 kg/m3
300 K, 5998.9 kPa, x2 = 0.8998 | 45.2004 kg/m3
300 K, 6904.7 kPa, x2 = 0.8 | 55.4385 kg/m3
300 K, 6954.3 kPa, x2 = 0.8998 | 53.0353 kg/m3
300 K, 8009.1 kPa, x2 = 0.8998 | 61.855 kg/m3
300 K, 8009.7 kPa, x2 = 0.8998 | 61.8592 kg/m3
300 K, 9029.6 kPa, x2 = 0.8998 | 70.5133 kg/m3 and 70.5136 kg/m3
300 K, 9030 kPa, x2 = 0.8998 | 70.5158 kg/m3
300 K, 10050 kPa, x2 = 0.8998 | 79.2704 kg/m3
300 K, 11034 kPa, x2 = 0.8998 | 87.7596 kg/m3
300 K, 12063 kPa, x2 = 0.8998 | 96.6441 kg/m3
300 K, 12064 kPa, x2 = 0.8998 | 96.6562 kg/m3
300 K, 12996 kPa, x2 = 0.8998 | 104.673 kg/m3
300 K, 14010 kPa, x2 = 0.8998 | 113.319 kg/m3
300 K, 14012 kPa, x2 = 0.8998 | 113.335 kg/m3
300 K, 16021 kPa, x2 = 0.8998 | 130.057 kg/m3
300 K, 16023 kPa, x2 = 0.8998 | 130.071 kg/m3
300 K, 17936 kPa, x2 = 0.8998 | 145.268 kg/m3
300 K, 17939 kPa, x2 = 0.8998 | 145.292 kg/m3
300 K, 20071 kPa, x2 = 0.8998 | 161.173 kg/m3
300 K, 20074 kPa, x2 = 0.8998 | 161.19 kg/m3
300.01 K, 19196 kPa, x2 = 0.8 | 160.005 kg/m3
349.98 K, 2438.8 kPa, x2 = 0.8 | 15.6874 kg/m3
349.98 K, 4939.5 kPa, x2 = 0.8 | 32.1898 kg/m3
349.98 K, 17023 kPa, x2 = 0.8 | 112.695 kg/m3
349.99 K, 2438.9 kPa, x2 = 0.8 | 15.6871 kg/m3
349.99 K, 4939.9 kPa, x2 = 0.8 | 32.193 kg/m3
349.99 K, 7493.5 kPa, x2 = 0.8 | 49.3399 kg/m3
349.99 K, 7494.4 kPa, x2 = 0.8 | 49.3451 kg/m3
349.99 K, 8821.7 kPa, x2 = 0.8 | 58.3187 kg/m3
349.99 K, 8822.8 kPa, x2 = 0.8 | 58.3243 kg/m3
349.99 K, 12241 kPa, x2 = 0.8 | 81.3717 kg/m3
349.99 K, 12243 kPa, x2 = 0.8 | 81.3884 kg/m3
349.99 K, 14938 kPa, x2 = 0.8 | 99.2371 kg/m3
349.99 K, 14942 kPa, x2 = 0.8 | 99.2671 kg/m3
349.99 K, 17029 kPa, x2 = 0.8 | 112.731 kg/m3
350 K, 1986.4 kPa, x2 = 0.8998 | 11.9478 kg/m3
350 K, 1986.5 kPa, x2 = 0.8998 | 11.9485 kg/m3
350 K, 3975.2 kPa, x2 = 0.8998 | 24.2393 kg/m3
350 K, 5966.2 kPa, x2 = 0.8998 | 36.8151 kg/m3
350 K, 8018.7 kPa, x2 = 0.8998 | 49.9871 kg/m3
350 K, 10026 kPa, x2 = 0.8998 | 62.975 kg/m3
350 K, 12032 kPa, x2 = 0.8998 | 75.9524 kg/m3
350 K, 12033 kPa, x2 = 0.8998 | 75.9539 kg/m3
350 K, 13967 kPa, x2 = 0.8998 | 88.3679 kg/m3
350 K, 13968 kPa, x2 = 0.8998 | 88.373 kg/m3
350 K, 16066 kPa, x2 = 0.8998 | 101.591 kg/m3
350 K, 16068 kPa, x2 = 0.8998 | 101.601 kg/m3
350 K, 16070 kPa, x2 = 0.8998 | 101.613 kg/m3
350 K, 16189 kPa, x2 = 0.8998 | 102.36 kg/m3
350 K, 18024 kPa, x2 = 0.8998 | 113.606 kg/m3
350 K, 19983 kPa, x2 = 0.8998 | 125.244 kg/m3
350 K, 19984 kPa, x2 = 0.8998 | 125.244 kg/m3
350.01 K, 8197.7 kPa, x2 = 0.8 | 54.0918 kg/m3
350.01 K, 8197.9 kPa, x2 = 0.8 | 54.0933 kg/m3
350.01 K, 10149 kPa, x2 = 0.8 | 67.2887 kg/m3
350.01 K, 11859 kPa, x2 = 0.8 | 78.8049 kg/m3
350.01 K, 11862 kPa, x2 = 0.8 | 78.8216 kg/m3
400 K, 4571.9 kPa, x2 = 0.8 | 25.5965 kg/m3
400 K, 5986.1 kPa, x2 = 0.8998 | 31.5654 kg/m3
400 K, 8029.2 kPa, x2 = 0.8998 | 42.4672 kg/m3
400 K, 9750.2 kPa, x2 = 0.8 | 54.7419 kg/m3
400 K, 12023 kPa, x2 = 0.8998 | 63.6651 kg/m3
400 K, 13644 kPa, x2 = 0.8 | 76.2876 kg/m3
400 K, 14030 kPa, x2 = 0.8998 | 74.1643 kg/m3
400 K, 18095 kPa, x2 = 0.8998 | 94.8699 kg/m3
400 K, 18098 kPa, x2 = 0.8998 | 94.8835 kg/m3
400 K, 19369 kPa, x2 = 0.8998 | 101.162 kg/m3
400.01 K, 2027.7 kPa, x2 = 0.8998 | 10.5861 kg/m3
400.01 K, 4038.9 kPa, x2 = 0.8998 | 21.2078 kg/m3
400.01 K, 4040.2 kPa, x2 = 0.8998 | 21.2133 kg/m3
400.01 K, 8029.4 kPa, x2 = 0.8998 | 42.4641 kg/m3
400.01 K, 10035 kPa, x2 = 0.8998 | 53.1468 kg/m3 and 53.1474 kg/m3
400.01 K, 14024 kPa, x2 = 0.8998 | 74.1363 kg/m3
400.01 K, 15973 kPa, x2 = 0.8998 | 84.171 kg/m3
400.01 K, 15985 kPa, x2 = 0.8998 | 84.2306 kg/m3
400.01 K, 19362 kPa, x2 = 0.8998 | 101.12 kg/m3
400.07 K, 1968.6 kPa, x2 = 0.8 | 10.9663 kg/m3
400.07 K, 5054.8 kPa, x2 = 0.8 | 28.3114 kg/m3
400.07 K, 7579.8 kPa, x2 = 0.8 | 42.5457 kg/m3
400.07 K, 7586.8 kPa, x2 = 0.8 | 42.5825 kg/m3
400.07 K, 10122 kPa, x2 = 0.8 | 56.8069 kg/m3
400.07 K, 10130 kPa, x2 = 0.8 | 56.8516 kg/m3
400.07 K, 13112 kPa, x2 = 0.8 | 73.3611 kg/m3
400.07 K, 13116 kPa, x2 = 0.8 | 73.3802 kg/m3
400.07 K, 13262 kPa, x2 = 0.8 | 74.1822 kg/m3
400.07 K, 15317 kPa, x2 = 0.8 | 85.3273 kg/m3
400.07 K, 15324 kPa, x2 = 0.8 | 85.3629 kg/m3
400.07 K, 17285 kPa, x2 = 0.8 | 95.7881 kg/m3
400.07 K, 17324 kPa, x2 = 0.8 | 95.9938 kg/m3
